Where a name gives a salt, the structure may show the parent alone.
Tests used:
[1] = biological target: T1, h-5-HT6 receptor (Homo sapiens, UniProt P50406); test: 5-HT6 receptor binding assay, displacement of [3H]-LSD; settings: membranes of HEK293 cells expressing h-5-HT6, 1 nM [3H]-LSD
T1 construct: expressed in transfected cells; host or cells: HEK293
Procedure: Displacement of Radioligands Binding to the Following Cloned Human Receptors
(§1) 1. Preparation of Membranes by Ultrasonic Treatment and Differential Centrifugation
Cells from stable clonal cell lines expressing the corresponding receptor (5-HT6, 1-adrenergic, dopamine D2 or histamine H1 receptors) were washed with PBS (w/o Ca^++, Mg^++) and harvested in PBS with 0.02% EDTA. The cells were collected by centrifugation at 500 g for 10 min. at 4° C., washed with PBS and centrifuged (500 g, 10 min. 4° C.). The pellets were stored at −80° C. until use. For membrane preparation, the thawed cell pellet was resuspended in ice-cold sucrose buffer (0.25 M sucrose, 10 mM Hepes (pH 7.4), 1 mM Phenylmethylsulfonyl fluoride (PMSF) in DMSO, […] Pepstatin-A, 3 mM EDTA, 0.025% Bacitracin) and homogenized with a Branson Sonifier W-250 (Settings: Timer 4; Output Control 3; Duty Cycle constant; 2 to 3 cycles). Cell disruption was checked with the aid of a microscope. Remaining unbroken cells were pelleted at 1,000 g for 10 min. at 4° C. The sucrose buffer supernatant was then centrifuged at 60,000 g for 1 h at 4° C. (Beckman Ultrazentrifuge XL 80). The pellet was resuspended in 30 ml ice-cold Tris buffer (20 mM TRIS (pH 7.4), […] Pepstatin A, 0.1 mM PMSF, 3 mM EDTA) by pipetting through a 10 ml serological pipet and centrifuged for 1 h at 4° C. at 60,000 g. A final resuspension was performed in a small volume of ice-cold Tris buffer (see above) by pressing through a serological pipet followed by ultrasonic treatment with a Branson Sonifier W-250 (Settings: Timer 1; Output Control 3; Duty Cycle constant; 1 cycle). Protein concentration was determined (BCA-Kit; Pierce) and aliquots stored at −80° C. or in liquid nitrogen for long-term storage.
(§2) 2. Receptor Binding Experiments
All receptor binding experiments were carried out in the corresponding assay buffer in a total volume of 200 μl in the presence of various concentrations of test compound (10^−5 M to 10^−9 M, tenfold serial dilution, duplicate determinations). The assays were terminated by filtration on polyethylenimine (PEI 0.1% or 0.3%) presoaked Packard Unifilter Plates (GF/C or GF/B) with a Tomtec MachIII U 96 well-plate harvester. After the plates had been dried for 2 h at 55° C. in a drying chamber scintillation cocktail (BetaPlate Scint; PerkinElmer) was added. Radioactivity was measured in a Microbeta Trilux two hours after the addition of the scintillation mixture. Data derived from liquid scintillation counting were analysed by iterative non-linear regression analysis with the use of the Statistical Analysis System (SAS): a program similar to “LIGAND” as described by Munson and Rodbard (Analytical Biochemistry 107, 220-239 (1980).
a) 5-HT6 Receptor Binding Assay
HEK293 cells stably expressing the h-5-HT6 receptor (NCBI Reference Sequence XM 001435) were cultured in RPMI1640 medium supplemented with 25 mM HEPES, 10% fetal calf serum and 1-2 mM glutamine. The membrane preparation was performed as described in section 1. […] Non-specific binding was defined with 1 μM methiothepin. The binding reaction was carried out for 3.5 h at room temperature. During the incubation, the plates were shaken on a plate shaker at 100 rpm and terminated by filtration on Packard Unifilter GF/C (0.1% PEI) plates, followed by 2 wash cycles with ice-cold 50 mM Tris-HCl, 5 mM CaCl2.
Data derived from liquid scintillation counting were analyzed by iterative non-linear regression analysis with the use of the Statistical Analysis System (SAS): a program similar to “LIGAND” as described by Munson and Rodbard (Anal. Biochem. 1980, 107, 220-239). Fitting was performed according to formulae described by Feldman (Anal. Biochem. 1972, 48, 317-338). IC50, nH and Ki values were expressed as geometrical mean.

[2] = biological target: T2, dopamine D2 receptor (Homo sapiens, UniProt P14416); test: Dopamine D2 receptor binding assay, displacement of [125I]-iodospiperone; settings: saturation binding, HEK293 dopamine D2 membranes; read-out: KD of radioligand
T2 construct: expressed in transfected cells; host or cells: HEK293
Procedure: as §1
The pellets were stored at −80° C. until use. […] (Beckman Ultrazentrifuge XL 80).
as §2
a) Dopamine D2 Receptor Binding Assay
Non-specific binding was defined with 1 μM haloperidol.

T1 sequence (P50406 whole entry): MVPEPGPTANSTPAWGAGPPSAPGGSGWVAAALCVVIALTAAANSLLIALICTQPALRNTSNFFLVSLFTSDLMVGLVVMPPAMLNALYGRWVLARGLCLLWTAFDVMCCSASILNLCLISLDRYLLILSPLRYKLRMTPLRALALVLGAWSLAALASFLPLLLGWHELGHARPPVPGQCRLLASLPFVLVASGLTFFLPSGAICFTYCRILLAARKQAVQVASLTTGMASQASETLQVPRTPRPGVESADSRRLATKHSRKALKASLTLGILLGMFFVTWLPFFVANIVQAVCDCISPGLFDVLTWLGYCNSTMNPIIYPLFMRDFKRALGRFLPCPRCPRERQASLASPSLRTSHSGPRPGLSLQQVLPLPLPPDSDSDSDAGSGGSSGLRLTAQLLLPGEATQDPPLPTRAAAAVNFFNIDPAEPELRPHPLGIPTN
T2 sequence (P14416 whole entry): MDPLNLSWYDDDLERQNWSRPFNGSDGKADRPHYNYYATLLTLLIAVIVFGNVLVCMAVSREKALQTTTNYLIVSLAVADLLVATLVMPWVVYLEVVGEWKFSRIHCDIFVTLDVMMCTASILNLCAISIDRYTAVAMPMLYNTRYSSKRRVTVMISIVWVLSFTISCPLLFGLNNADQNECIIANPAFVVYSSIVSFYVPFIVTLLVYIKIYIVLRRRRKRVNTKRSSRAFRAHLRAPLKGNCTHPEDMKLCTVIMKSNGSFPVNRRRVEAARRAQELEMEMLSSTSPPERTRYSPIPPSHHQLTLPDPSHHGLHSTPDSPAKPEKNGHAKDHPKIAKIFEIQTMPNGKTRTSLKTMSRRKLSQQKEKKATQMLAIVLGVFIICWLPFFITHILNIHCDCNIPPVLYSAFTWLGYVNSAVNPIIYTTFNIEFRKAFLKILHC

Ki [1] [nM]	Kd [2] [nM]	Compound
< 100	–	O=S(=O)(c1ccccc1)c1cnc2c(C3CNC3)cccc2c1 [Example 1, 8-(Azetidin-3-yl)-3-(phenylsulfonyl)quinoline hydrochloride]
< 100	–	O=S(=O)(c1ccccc1)c1cnc2c(C3CCNCC3)cccc2c1 [Example 2, 3-(Phenylsulfonyl)-8-(piperidin-4-yl)quinoline hydrochloride]
> 1000	–	O=S(=O)(c1ccccc1)c1cnc2c(C3CCN(Cc4ccccc4)C3)cccc2c1 (centres unmarked) [Example 3, 8-(1-Benzylpyrrolidin-3-yl)-3-(phenylsulfonyl)quinoline]
< 100	–	O=S(=O)(c1cccc(C(F)(F)F)c1)c1cnc2c(C3CCNCC3)cccc2c1 [Example 4, 8-(Piperidin-4-yl)-3-(3-(trifluoromethyl)phenylsulfonyl)quinoline]
< 100	–	O=S(=O)(c1ccc(F)cc1)c1cnc2c(C3CCNCC3)cccc2c1 [Example 5, 3-(4-Fluorophenylsulfonyl)-8-(piperidin-4-yl)quinoline]
< 100	–	O=S(=O)(c1cccc(Br)c1)c1cnc2c(C3CCNCC3)cccc2c1 [Example 6, 3-(3-Bromophenylsulfonyl)-8-(piperidin-4-yl)quinoline]
< 100	–	O=S(=O)(c1cccc(N2CCCC2)c1)c1cnc2c(C3CCNCC3)cccc2c1 [Example 7, 8-(Piperidin-4-yl)-3-(3-(pyrrolidin-1-yl)phenylsulfonyl)quinoline]
–	0.22	iodospiperone [[^125I]-iodospiperone]
